Reference: US10066025B2, “Compositions and methods for detecting, treating and preventing diseases and disorders” (YALE UNIVERSITY, priority 2012, dated 2018)
“Also recorded” adds a separate entry of the source.

How the values were obtained:
HK-2 cells [1] = experiment: HK-2 cell cisplatin toxicity (WST-1 viability, western blot); assay type: cell-based, human; details: 20 μM cisplatin, 24 hrs
Protocol: Cultured HK-2 cells were incubated with 20 μM cisplatin for 24 hours with and without recombinant renalase. Renalase expression was examined by Western blot and cell viability (mitochondrial integrity) was determined spectrophotometrically using WST-1, a tetrazolium salt that is cleaved, by mitochondrial dehydrogenases of metabolically active and viable cells, to formazan (420-480 nm) (Boehringer Mannheim, Germany).
(§1) HK2 cells (human proximal tubular line) obtained from ATTC (Manassas, Va., USA) were cultured in DMEM/F12 supplemented with glutamine, 10% FBS and antibiotics, and were maintained at 37° C. in 5% CO2. Cells were exposed to cisplatin (20 μM) in the presence or absence of renalase for 24 hrs, and cell viability was assessed by the WST1 method (Roche Applied Science, Germany). Cells were then harvested in RIPA buffer (20 mM Tris-HCl pH 7.5, 150 mM NaCl, 1 mM Na2EDTA, 1 mM EGTA, 1% NP-40, 1% sodium deoxycholate, 2.5 mM sodium pyrophosphate, 1 mM β-glycerophosphate, 1 mM Na3VO4, 1 μg/ml leupeptin) supplemented with a protease and phosphatase inhibitor cocktail (Roche Applied Science, Germany). Proteins were separated by SDS-PAGE and Western blotting was carried out using the following antibodies: anti-renalase monoclonal (Desir et al., 2012, J Am Heart Assoc. 1:e002634; (Lee et al., 2013, J Am Soc Nephrol 24:445-455); anti caspase 3 (Cell Signaling Technology, MA, USA) and anti Bcl2 (Thermo Scientific, USA). Necrotic injury in HK-2 cells (ATCC, Manassas, Va.) was induced with exposure to 2 mM H2O2 for 2-8 hr and lactate dehydrogenase (LDH) released into cell culture media was measured as described using a commercial LDH assay kit (Promega, Madison, Wis.) (Lee and Emala, 2002, American journal of physiology. Renal physiology 282:F844-852).

systemic blood pressure = experiment: Blood pressure and heart rate in anesthetized mice; assay type: in vivo; details: for effect on systemic blood pressure: IV and subcutaneous administration, mice
Protocol: As in 14A, except that RP-H220 is injected; no significant changes in blood pressure (FIG. 14B). Effect of a single intravenous injection of RP-220 (squares) and RP-H220 (diamonds) on heart rate in wild type mice (FIG. 14C).
FIG. 21 depicts the results of experiments examining the effect of RP-220 injection on blood pressure. A single subcutaneous injection of RP-220 (n=3) or buffer (n=2) in anesthetized wild type mice; BP pressure is recorded continuously; RP-220 is given at time 0; each data point represents the mean pressure; the standard error of the means are shown.
Systolic and diastolic pressure and heart rate were measured in anesthetized mice as previously described (Desir et al., 2012, J Am Heart Assoc. 1:e002634).

[2] = tested on: renal ischemia/reperfusion (IR) injury; experiment: Murine model of renal ischemia/reperfusion (IR) injury, plasma creatinine; assay type: in vivo, mice; details: renalase peptides 100 μg subcutaneous 10 to 30 min prior to 30 min renal ischemia, WT mice
Protocol: Adult male renalase deficient (KO) mice (Wu et al., 2011, Kidney Int 79: 853-860) on a C57BL/6 background were subjected to renal ischemia/reperfusion (IR) as described (Kim et al., 2009, Kidney Int 75: 809-823; Kim et al., 2010, Am J Physiol Renal Physiol 299(2):F347-58). Renalase KO or wild type (WT) mice (C57BL/6 from Harlan Labs, Indianapolis, Ind.) were subjected to sham-operation or to 20 min. (moderate) or 30 min. (severe) renal ischemia and 24 hr. reperfusion. To test the renal protective effects of recombinant human renalase, mice were pretreated with saline (vehicle) or with recombinant renalase (0.5, 1.5 or 4.5 mg/kg, s.c.) 10 min. prior to 30 min. renal ischemia. It was also tested whether renalase treatment after completion of renal ischemia also provides renal protection. Separate cohorts of mice were treated with saline or with renalase (1.5 mg/kg, s.c.) 30 min. or 60 min. after reperfusion of the ischemic kidney. To test whether blocking alpha receptors would mimic the renal protective effects of human recombinant renalase administration, phentolamine (an alpha receptor antagonist, 5 mg/kg, i.p.) was given in some mice 15 min. before renal ischemia.
Plasma creatinine was measured as described with an enzymatic creatinine reagent kit according to the manufacturer's instructions (Thermo Fisher Scientific, Waltham, Mass.) (Slot, 1965, J Clin Lab Invest 17: 381-387).
After animal care and use committee approval, adult male C57BL/6 (Harlan Labs, Indianapolis, Ind.) were subjected to sham-operation or to 30 minutes of renal ischemia followed by 24 hrs of reperfusion as previously described (Lee et al., 2004, American journal of physiology. Renal physiology 286:F298-306). To test the renal protective effects of renalase peptides (RP-220, RP-H220 and RP-224), mice were pretreated with saline (vehicle) or with renalase peptides (100 μg subcutaneous) 10 to 30 minutes prior to renal ischemia.
Blood was collected from mice anesthetized with isoflurane via cardiac puncture into a heparinized syringe and was subsequently centrifuged to separate plasma. Samples were submitted to the Yale O'Brien Kidney Center for measurement of BUN and creatinine. Plasma creatinine was measured either by an enzymatic creatinine reagent kit according to the manufacturer's instructions (Thermo Fisher Scientific, Waltham, Mass.) or by HPLC. These methods of creatinine measurement largely eliminate the interferences from mouse plasma chromagens, known to occur with the Jaffe method.

HK-2 cells [3] = experiment: HK-2 cell necrosis induced with 2 mM H2O2 (LDH release); assay type: cell-based, human; details: at 2 and 4 hrs
Protocol: as §1

Substance: RP H220: histidine tagged RP-220, SEQ ID NO: 4, HHHHHHCIRFVSIDNKKRNIESSEIG (listed as Homo sapiens)
- cell survival / protection against cisplatin toxicity (HK-2 cells [1]): improved HK-2 cell survival
- effect on systemic blood pressure (systemic blood pressure): nor significant effect on systemic blood pressure; also recorded: no effect on BP
- effect on systemic blood pressure (systemic blood pressure; listed as RP-H220): neither intravenous nor subcutaneous injection of RP-H220 had any effect on blood pressure
- heart rate (systemic blood pressure; anesthetized WT mice): did not change
- protection against ischemic AKI (renal injury, plasma creatinine at 24 hr) [2]: protected against ischemia
- protection against ischemic AKI (renal injury, plasma creatinine at 24 hr) ([2]; listed as RP-H220): reduced renal injury; also recorded: more effective than RP-220; also recorded: ameliorated the renal ischemic injury
- necrosis induced with 2 mM H2O2 (HK-2 cells [3]): significantly reduced necrosis
